According to patent US8999956B2, “N-[(het)arylalkyl)] pyrazole(thio)carboxamides and their heterosubstituted analogues” (Bayer Intellectual Property GmbH, priority 2010, dated 2015):

Key:
[1] = system: Alternaria solani; assay: In vivo preventive test on Alternaria solani (tomato); settings: 500 ppm of active ingredient, evaluated 7 days after inoculation
Description: (§1) Solvent: 49 parts by weight of N,N-dimethylformamide Emulsifier: 1 part by weight of Alkylarylpolyglycolether To produce a suitable preparation of active compound, 1 part by weight of active compound is mixed with the stated amounts of solvent and emulsifier, and the concentrate is diluted with water to the desired concentration. To test for preventive activity, young plants are sprayed with the preparation of active compound at the stated rate of application. One day after this treatment, the plants are inoculated with an aqueous spore suspension of Alternaria solani.

[2] = system: Pyrenophora teres; assay: In vivo preventive test on Pyrenophora teres (barley); settings: 500 ppm of active ingredient, evaluated 7-9 days after inoculation
Description: as §1, with “alkylaryl polyglycol ether” for “Alkylarylpolyglycolether”, “Pyrenophora teres.” for “Alternaria solani.”

[3] = log P by HPLC on reversed-phase column (EEC Directive 79/831 Annex V.A8); format: physicochemical
Description: In table 1, the log P values were determined in accordance with EEC Directive 79/831 Annex V.A8 by HPLC (High Performance Liquid Chromatography) on a reversed-phase column (C18), using the method described below: Temperature: 40° C.; […]

logP [3]	SMILES	Efficacy [1] [%]	Efficacy [2] [%]
3.04	CC(CCc1ccccc1)NC(=O)c1c(C(F)F)nn(C)c1Cl (stereo not drawn) [Example 11]	95	100
4.11	CC(C)C(CCc1ccc(Cl)cc1)NC(=O)c1c(C(F)F)nn(C)c1Cl (stereo not drawn) [Example 62]		80
3.74	Cn1nc(C(F)F)c(C(=O)NC(COc2ccc3ccccc3c2)C2CC2)c1F (racemic) [Example 137]	95	89
3.83	Cn1nc(C(F)F)c(C(=O)NC(C)(C)CCc2cccc(Cl)c2)c1F [Example 84]	95	95
3.64	Cc1ccc(SCC(C2CC2)N(C)C(=O)c2c(C(F)F)nn(C)c2F)cc1 (stereo not drawn) [Example 40]	95	80
3.04	Cn1nc(C(F)F)c(C(=O)NCCOc2ccc(C(F)(F)F)cc2)c1F [Example 68]		80
3.08	CN(C(=O)c1c(C(F)F)nn(C)c1F)C(COc1ccccc1)C1CC1 (stereo not drawn) [Example 21]	90	80
4.49	Cn1nc(C(F)F)c(C(=O)NC(C)(C)CCc2cc(Cl)ccc2Cl)c1Cl [Example 177]	100	100
3.02	CN(CC(NC(=O)c1c(C(F)F)nn(C)c1F)C1CC1)c1ccccc1 (stereo not drawn) [Example 17]	95	
2.96	Cn1nc(C(F)F)c(C(=O)NCC2CCCC(C(F)(F)F)C2)c1F (stereo not drawn) [Example 379]	95	100
4.01	CCC(COc1cc(Cl)ccc1Cl)NC(=O)c1c(C(F)F)nn(C)c1Cl (stereo not drawn) [Example 176]	80	95
4.18	Cn1nc(C(F)F)c(C(=O)NC(COc2ccc(Cl)cc2Cl)C2CC2)c1Cl (stereo not drawn) [Example 194]	70	
1.86	CCC(COc1cc(OC)ccn1)NC(=O)c1c(C(F)F)nn(C)c1Cl (stereo not drawn) [Example 43]		89
3.31	Cn1nc(C(F)F)c(C(=O)NCCOc2cc(Cl)ccc2Cl)c1Cl [Example 170]	90	
2.73	CN(CCCc1ccccc1)C(=O)c1c(C(F)F)nn(C)c1F [Example 6]	95	70
4.61	Cn1nc(C(F)F)c(C(=O)NC(C)(C)CCc2ccc(Cl)cc2Cl)c1Cl [Example 195]	95	95
2.14	CCC(COc1cc(C)cc(C)n1)NC(=O)c1c(C(F)F)nn(C)c1Cl (stereo not drawn) [Example 67]	70	100
3.41	Cn1nc(C(F)F)c(C(=O)NCCOc2cccc(Oc3ccccc3)c2)c1F [Example 74]	95	

logP [3]	SMILES	Efficacy [1] [%]	Efficacy [2] [%]
4.03	Cn1nc(C(F)F)c(C(=O)N(CCOc2ccc(-c3ccccc3)cc2)C2CC2)c1Cl [Example 28]		90
3.19	Cn1nc(C(F)F)c(C(=O)NC2(COc3ccc(Cl)cc3)CC2)c1Cl [Example 45]	95	
4.04	CC(CNC(=O)c1c(C(F)F)nn(C)c1Cl)Cc1cc(Cl)cc(Cl)c1 (stereo not drawn) [Example 115]	90	100
2.06	CC(C)OC1CCCC(NC(=O)c2c(C(F)F)nn(C)c2F)C1 (stereo not drawn) [Example 325]	95	
2.84	CC(COc1ccccc1)NC(=O)c1c(C(F)F)nn(C)c1Cl (stereo not drawn) [Example 14]		95
2.44	Cn1nc(C(F)F)c(C(=O)NCCOc2c(F)cccc2F)c1F [Example 159]	90	
2.82	CN(CCCc1ccccc1)C(=O)c1c(C(F)F)nn(C)c1Cl [Example 5]	80	
1.72 isomer A	CC(O)C1CCCCC1NC(=O)c1c(C(F)F)nn(C)c1F (single isomer, unassigned) [Example 341]	80	
2.66	CC(COc1ccccc1)NC(=O)c1c(C(F)F)nn(C)c1F (stereo not drawn) [Example 13]		94
3.79	Cn1nc(C(F)F)c(C(=O)NC2CCCCC2C(C)(C)C)c1F (stereo not drawn) [Example 349]		95
3.99	Cn1nc(C(F)F)c(C(=O)NC(C)(C)CCc2ccccc2Cl)c1Cl [Example 147]		100
3.68	Cn1nc(C(F)F)c(C(=O)NCCCc2ccc(Cl)cc2Cl)c1Cl [Example 179]		100
2.21	Cn1nc(C(F)F)c(C(=O)N(CCCC2CCCO2)C2CC2)c1F (stereo not drawn) [Example 114]		
3.78	CC(C)N(CCOc1ccc(Cl)cc1)C(=O)c1c(C(F)F)nn(C)c1Cl [Example 53]		
2.17	Cn1nc(C(F)F)c(C(=O)NCCCc2ccco2)c1F [Example 100]		
3.60	Cn1nc(C(F)F)c(C(=O)NCCOc2ccc(-c3ccccc3)cc2)c1Cl [Example 26]		
3.27	CC(CSCc1ccco1)N(C(=O)c1c(C(F)F)nn(C)c1Cl)C1CC1 (stereo not drawn) [Example 237]		
5.42	CC(C)CC(C)C1CCCCC1NC(=S)c1c(C(F)F)nn(C)c1Cl (stereo not drawn) [Example 336]		

The remaining lines, values behind:

SMILES	logP [3]	Efficacy [1] [%]	Efficacy [2] [%]
CC(CNC(=O)c1c(C(F)F)nn(C)c1Cl)Cc1c(F)cccc1F (stereo not drawn) [Example 158]	3.21	80	95
Cn1nc(C(F)F)c(C(=O)NCCOc2ccc(Oc3ccccc3)cc2)c1Cl [Example 35]	3.55		70
Cn1nc(C(F)F)c(C(=O)NCCOc2ccc(C(F)(F)F)cc2)c1Cl [Example 69]	3.17	80	
Cn1nc(C(F)F)c(C(=O)NCC(Sc2ccc(Cl)cc2)C(F)(F)F)c1F (stereo not drawn) [Example 46]	3.73	100	100
CCN(C(=O)c1c(C(F)F)nn(C)c1F)C(C)COc1ccc(C)cc1 (stereo not drawn) [Example 38]	3.27	80	80
Cn1nc(C(F)F)c(C(=O)NC2(COc3ccc(Cl)cc3)CC2)c1F [Example 44]	3.00	100	
CC(CNC(=O)c1c(C(F)F)nn(C)c1Cl)Cc1ccc(Cl)c(Cl)c1 (racemic) [Example 127]	3.87	90	100
CC(C)C(CCc1ccc(Cl)cc1)NC(=O)c1c(C(F)F)nn(C)c1F (stereo not drawn) [Example 63]	3.94	100	100
Cn1nc(C(F)F)c(C(=O)NC(C)(C)CCc2cccc(C(F)(F)F)c2)c1Cl [Example 135]	4.11		90
Cn1nc(C(F)F)c(C(=O)NC2(C3CCCCC3)CC2)c1Cl [Example 380]	3.29	95	100
Cn1nc(C(F)F)c(C(=O)NC2CCCC2Sc2ncccn2)c1F (stereo not drawn) [Example 258]	2.17		89
Cn1nc(C(F)F)c(C(=O)NCCOc2ccc(Oc3ccccc3)cc2)c1F [Example 34]	3.42	90	
CN(c1ccc(Oc2ccccc2)cc1)C(CNC(=O)c1c(C(F)F)nn(C)c1F)C(F)(F)F (stereo not drawn) [Example 33]	4.16	95	95
CN(c1ccc(Oc2ccccc2)cc1)C(CNC(=O)c1c(C(F)F)nn(C)c1Cl)C(F)(F)F (stereo not drawn) [Example 32]	4.27	95	70
Cn1nc(C(F)F)c(C(=O)NCCOc2ccc(Cl)cc2)c1F [Example 48]	2.78	90	
CN(C(=O)c1c(C(F)F)nn(C)c1F)C(COc1ccc2ccccc2c1)C1CC1 (racemic) [Example 139]	3.76		90
Cn1nc(C(F)F)c(C(=O)NCC(Sc2ccc(Cl)cc2)C(F)(F)F)c1Cl (stereo not drawn) [Example 47]	3.89	80	
CN(CCCc1ccccc1Cl)C(=O)c1c(C(F)F)nn(C)c1Cl [Example 141]	3.17		90
Cn1nc(C(F)F)c(C(=O)NC(CSc2ccccc2)C2CC2)c1F (stereo not drawn) [Example 22]	3.25	95	
Cc1cccc(OC2CCCC2NC(=O)c2c(C(F)F)nn(C)c2Cl)c1 (stereo not drawn) [Example 260]	3.78		70
CN(C(=O)c1c(C(F)F)nn(C)c1Cl)C(CSCc1ccccc1)C1CC1 (stereo not drawn) [Example 224]	3.62	70	
Cc1ccsc1CCCN(C(=O)c1c(C(F)F)nn(C)c1F)C1CC1 [Example 105]	3.33		
Cn1nc(C(F)F)c(C(=O)N(C2CC2)C2CCCC2C2CCCC2)c1Cl (stereo not drawn) [Example 369]	4.83		
Cn1nc(C(F)F)c(C(=O)NC(COc2ccccc2)C2CC2)c1Cl (stereo not drawn) [Example 20]	3.25		
Cc1ccc(CCCN(C(=O)c2c(C(F)F)nn(C)c2F)C2CC2)s1 [Example 113]	3.44		
